Data from patent US10681909B2, “Herbicidal triazoles” (FMC Corporation, priority 2014, dated 2020).

Tests used:
pigweed [1] = test: Test A preemergence; format: in vivo, Amaranthus retroflexus; settings: 0 to 100 scale (0 no effect, 100 complete control)
In short: (§1)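 Herbicidal response was scored on plants treated pre- or postemergence with surfactant-containing, non-phytotoxic solvent formulations. Preemergence meant a directed spray onto soil (loam–sand) holding sown seed; postemergence plants were at one to two leaves.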

corn = test: Test A postemergence; format: in vivo, Zea mays; settings: 0 to 100 scale (0 no effect, 100 complete control), approx. 10 d
In short: as §1

rice = test: Test B flooded paddy test; format: in vivo, Oryza sativa; settings: 250 g ai/ha, applied to paddy water at 2-leaf stage, visual rating after 13 to 15 d, scale 0 (no effect) to 100 (complete control)
In short: (§2)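 Pots were flooded to 3 cm above the soil at treatment, and compounds were applied directly into the paddy water. That depth was held throughout. After 13 to 15 d in a greenhouse, plants were rated visually against untreated controls.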

ducksalad = test: Test B flooded paddy test; format: in vivo, Heteranthera limosa; settings: 250 g ai/ha, applied to paddy water at 2-leaf stage, visual rating after 13 to 15 d, scale 0 (no effect) to 100 (complete control)
In short: as §2

barnyardgrass = test: Test B flooded paddy test; format: in vivo, Echinochloa crus-galli; settings: 250 g ai/ha, applied to paddy water at 2-leaf stage, visual rating after 13 to 15 d, scale 0 (no effect) to 100 (complete control)
In short: as §2

wheat (winter wheat) = test: Test C postemergence; format: in vivo, Triticum aestivum
Source text: (§3) Seeds of plant species selected from blackgrass (Alopecurus myosuroides), ryegrass, Italian (Italian ryegrass, Lolium multiflorum), wheat (winter wheat, Triticum aestivum), galium (catchweed bedstraw, Galium aparine), corn (Zea mays), crabgrass, large (large crabgrass, Digitaria sanguinalis), foxtail, giant, (giant foxtail, Setaria faberii), johnsongrass (Sorghum halepense), lambsquarters (Chenopodium album), morningglory (Ipomoea coccinea), nutsedge, yellow (yellow nutsedge, Cyperus esculentus), pigweed (Amaranthus retroflexus), ragweed (common ragweed, Ambrosia elatior), soybean (Glycine max), barnyardgrass (Echinochloa crus-galli), oilseed rape (Brassica napus), waterhemp (common waterhemp, Amaranthus rudis), and velvetleaf (Abutilon theophrasti) were planted into a blend of loam soil and sand and treated preemergence with test chemicals formulated in a non-phytotoxic solvent mixture which included a surfactant. At the same time, plants selected from these crop and weed species and also chickweed (common chickweed, Stellaria media), oat, wild (wild oat, Avena fatua), and kochia (Kochia scoparia), were planted in pots containing Sunshine Redi-Earth® planting medium comprising spaghnum peat moss, vermiculite, starter nutrients and dolomitic limestone and treated with postemergence applications of test chemicals formulated in the same manner. Plants ranged in height from 2 to 18 cm (1- to 4-leaf stage) for postemergence treatments. […] A dash (-) response means no test result.

foxtail, giant = test: Test C postemergence; format: in vivo, Setaria faberii
Source text: as §3

lambsquarters = test: Test C postemergence; format: in vivo, Chenopodium album
Source text: as §3

pigweed [2] = test: Test C postemergence; format: in vivo, Amaranthus retroflexus
Source text: as §3

ragweed = test: Test C postemergence; format: in vivo, Ambrosia elatior
Source text: as §3

soybean = test: Test C postemergence; format: in vivo, Glycine max
Source text: as §3

chickweed = test: Test C postemergence; format: in vivo, Stellaria media
Source text: as §3

oat, wild = test: Test C postemergence; format: in vivo, Avena fatua
Source text: as §3

Row | Compound | Plant response rating (scale of 0 to 100 where 0 is no effect and 100 is complete control) (wheat (winter wheat); 31 g ai/ha) | Plant response rating (scale of 0 to 100 where 0 is no effect and 100 is complete control) (wheat (winter wheat); 62 g ai/ha) | Plant response rating (scale of 0 to 100 where 0 is no effect and 100 is complete control) (wheat (winter wheat); 125 g ai/ha) | Plant response rating (scale of 0 to 100 where 0 is no effect and 100 is complete control) (wheat (winter wheat); 250 g ai/ha) | Plant response rating (scale of 0 to 100 where 0 is no effect and 100 is complete control) (foxtail, giant; 31 g ai/ha) | Plant response rating (scale of 0 to 100 where 0 is no effect and 100 is complete control) (foxtail, giant; 62 g ai/ha) | Plant response rating (scale of 0 to 100 where 0 is no effect and 100 is complete control) (foxtail, giant; 125 g ai/ha) | Plant response rating (scale of 0 to 100 where 0 is no effect and 100 is complete control) (foxtail, giant; 250 g ai/ha) | Plant response rating (scale of 0 to 100 where 0 is no effect and 100 is complete control) (lambsquarters; 31 g ai/ha) | Plant response rating (scale of 0 to 100 where 0 is no effect and 100 is complete control) (lambsquarters; 62 g ai/ha) | Plant response rating (scale of 0 to 100 where 0 is no effect and 100 is complete control) (lambsquarters; 125 g ai/ha) | Plant response rating (scale of 0 to 100 where 0 is no effect and 100 is complete control) (lambsquarters; 250 g ai/ha) | Plant response rating (scale of 0 to 100 where 0 is no effect and 100 is complete control) (pigweed [2]; 31 g ai/ha) | Plant response rating (scale of 0 to 100 where 0 is no effect and 100 is complete control) (pigweed [2]; 62 g ai/ha) | Plant response rating (scale of 0 to 100 where 0 is no effect and 100 is complete control) (pigweed [2]; 125 g ai/ha) | Plant response rating (scale of 0 to 100 where 0 is no effect and 100 is complete control) (pigweed [2]; 250 g ai/ha) | Plant response rating (scale of 0 to 100 where 0 is no effect and 100 is complete control) (ragweed; 31 g ai/ha) | Plant response rating (scale of 0 to 100 where 0 is no effect and 100 is complete control) (ragweed; 62 g ai/ha) | Plant response rating (scale of 0 to 100 where 0 is no effect and 100 is complete control) (ragweed; 125 g ai/ha) | Plant response rating (scale of 0 to 100 where 0 is no effect and 100 is complete control) (ragweed; 250 g ai/ha) | also measured
1 | FC(F)(F)COc1nc(-c2ccccc2)nn1Cc1ccnc(C(F)(F)F)c1 [Compound 24] | 5 | 5 | 5 | 5 | 15 | 20 | 20 | 20 | 100 | 100 | 100 | 100 | 100 | 100 | 100 | 100 | 65 | 75 | 75 | 75 | Plant response rating, Pigweed (pigweed [1]; 125 g ai/ha): 100; Plant response rating, Pigweed (pigweed [1]; 500 g ai/ha, approx. 10 d): 100; Plant response rating, Corn (corn; 125 g ai/ha): 20; Plant response rating, Corn (corn; 500 g ai/ha): 40; Plant response rating, Rice, Flood (rice): 0; Plant response rating, Ducksalad, Flood (ducksalad): 30; Plant response rating, Barnyardgrass, Flood (barnyardgrass): 30; Plant response rating (scale of 0 to 100 where 0 is no effect and 100 is complete control) (soybean; 31 g ai/ha): 55; Plant response rating (scale of 0 to 100 where 0 is no effect and 100 is complete control) (soybean; 62 g ai/ha): 40; Plant response rating (scale of 0 to 100 where 0 is no effect and 100 is complete control) (soybean; 125 g ai/ha): 55; Plant response rating (scale of 0 to 100 where 0 is no effect and 100 is complete control) (soybean; 250 g ai/ha): 40; Plant response rating (scale of 0 to 100 where 0 is no effect and 100 is complete control) (chickweed; 31 g ai/ha): 55; Plant response rating (scale of 0 to 100 where 0 is no effect and 100 is complete control) (chickweed; 62 g ai/ha): 80; Plant response rating (scale of 0 to 100 where 0 is no effect and 100 is complete control) (chickweed; 125 g ai/ha): 65; Plant response rating (scale of 0 to 100 where 0 is no effect and 100 is complete control) (chickweed; 250 g ai/ha): 85; Plant response rating (scale of 0 to 100 where 0 is no effect and 100 is complete control) (oat, wild; 31 g ai/ha): 15; Plant response rating (scale of 0 to 100 where 0 is no effect and 100 is complete control) (oat, wild; 62 g ai/ha): 30; Plant response rating (scale of 0 to 100 where 0 is no effect and 100 is complete control) (oat, wild; 125 g ai/ha): 20; Plant response rating (scale of 0 to 100 where 0 is no effect and 100 is complete control) (oat, wild; 250 g ai/ha): 35
2 | CCOc1nc(-c2ccc(C(F)(F)F)cc2)nn1Cc1ccnc(C(F)(F)F)c1 [Compound 35, 4-[[5-ethoxy-3-[4-(trifluoromethyl)phenyl]-1H-1,2,4-triazole-1-yl]methyl]-2-(trifluoromethyl)pyridine] | 15 | 20 | 35 | 30 | 25 | 40 | 70 | 85 | 98 | 95 | 98 | 100 | 98 | 98 | 100 | 100 | 65 | 75 | 80 | 85 | pest or weed control at 31 g/ha (pigweed [1]; Amaranthus retroflexus, pre-emergence, 240 h, 31 g ai/ha, read-out: Plant response rating, Pigweed): 100%; pest or weed control at 125 g/ha (pigweed [1]; Amaranthus retroflexus, pre-emergence, 240 h, 125 g ai/ha, read-out: Plant response rating, Pigweed): 100%; Corn plant response rating (crop injury, 0 = no effect, 100 = complete kill) at 31 g/ha (corn; Zea mays, post-emergence, 240 h, 31 g ai/ha): 40%; Corn plant response rating (crop injury, 0 = no effect, 100 = complete kill) at 125 g/ha (corn; Zea mays, post-emergence, 240 h, 125 g ai/ha): 80%; Plant response rating (scale of 0 to 100 where 0 is no effect and 100 is complete control) (soybean; 31 g ai/ha): 55; Plant response rating (scale of 0 to 100 where 0 is no effect and 100 is complete control) (soybean; 62 g ai/ha): 65; Plant response rating (scale of 0 to 100 where 0 is no effect and 100 is complete control) (soybean; 125 g ai/ha): 65; Plant response rating (scale of 0 to 100 where 0 is no effect and 100 is complete control) (soybean; 250 g ai/ha): 70; Plant response rating (scale of 0 to 100 where 0 is no effect and 100 is complete control) (chickweed; 31 g ai/ha): 100; Plant response rating (scale of 0 to 100 where 0 is no effect and 100 is complete control) (chickweed; 62 g ai/ha): 100; Plant response rating (scale of 0 to 100 where 0 is no effect and 100 is complete control) (chickweed; 125 g ai/ha): 100; Plant response rating (scale of 0 to 100 where 0 is no effect and 100 is complete control) (chickweed; 250 g ai/ha): 100; Plant response rating (scale of 0 to 100 where 0 is no effect and 100 is complete control) (oat, wild; 31 g ai/ha): 45; Plant response rating (scale of 0 to 100 where 0 is no effect and 100 is complete control) (oat, wild; 62 g ai/ha): 50; Plant response rating (scale of 0 to 100 where 0 is no effect and 100 is complete control) (oat, wild; 125 g ai/ha): 85; Plant response rating (scale of 0 to 100 where 0 is no effect and 100 is complete control) (oat, wild; 250 g ai/ha): 90
